Measured values published in publication PMC2614658 (Antiviral Research, 2008).
Like-named read-outs stand apart in the source and are kept apart here.

How the values were obtained:
[1] = tested on: influenza A/WSN/33 virus; conditions: ∼6 μM PMA
[2] = tested on: influenza A/WSN/33 virus
[3] = tested on: A549 cells; conditions: 24 h treatment, MTS assay
[4] = tested on: influenza B/Yamagata/88 virus; type: cell-based
[5] = tested on: vesicular stomatitis virus (VSV-GFP); type: cell-based
[6] = tested on: Newcastle disease virus (NDV/B1); type: cell-based
[7] = tested on: influenza A/WSN/33 virus; type: cell-based
[8] = tested on: influenza A/WSN/33 virus; test: in vitro; conditions: human
[9] = in vitro; conditions: human
[10] = tested on: influenza A/WSN/33 virus; test: microbe, parasite or virus in culture; conditions: A549, 24 h
[11] = read-out: IC50 (compound concentration of 50% inhibition of viral replication)

CCCCCCCCCCCCCC(=O)O[C@@H]1[C@@H](C)[C@@]2(O)[C@@H](C=C(CO)C[C@]3(O)C(=O)C(C)=C[C@@H]23)[C@@H]2C(C)(C)[C@]12OC(C)=O [PMA, phorbol 12-myristate 13-acetate]
toxicity at the concentration used in the screen [1]: toxic | increase in viral titer compared to untreated control [2]: 12 fold

N#Cc1cc2c(OCC(O)CN3CCN(C(c4ccccc4)c4ccccc4)CC3)cccc2[nH]1 (stereo not shown) [SDZ-201106]
concentrations found to be non-toxic / not decreasing cell viability [3]: up to 12.5 μM | reduction in viral titers compared to untreated control [4]: 72% | SI (CC50/IC50), selective index [2]: 7 | reduction in viral titers compared to untreated control [2]: 85% | IC50 [2, 11]: 4100 nM

CC(=O)O[C@H]1C[C@H](O[C@H]2[C@@H](O)C[C@H](O[C@H]3[C@@H](O)C[C@H](O[C@H]4CC[C@@]5(C)[C@H](CC[C@@H]6[C@@H]5C[C@@H](O)[C@]5(C)[C@@H](C7=CC(=O)OC7)CC[C@]65O)C4)O[C@@H]3C)O[C@@H]2C)O[C@H](C)[C@H]1O[C@@H]1O[C@H](CO)[C@@H](O)[C@H](O)[C@H]1O [lanatoside C]
decrease in viral titers compared to untreated control ([2]; […], 20 nM ouabain or 78 nM lanatoside C): 95.9% | effect on viral replication [5]: significantly inhibit | effect on viral replication [6]: significantly inhibit

C=C(C)[C@@]12O[C@@]3(c4ccccc4)O[C@@H]1[C@@H]1[C@@H]4O[C@]4(CO)[C@@H](O)[C@]4(O)C(=O)C(C)=C[C@H]4[C@@]1(O3)[C@H](C)[C@H]2OC(=O)/C=C/C=C/c1ccccc1 [mezerein]
increase in viral titer compared to untreated cells [4]: eightfold | increase in viral titers [7]: 15 fold

C[C@@H]1O[C@@H](O[C@H]2C[C@@H](O)[C@]3(CO)[C@H]4[C@H](O)C[C@]5(C)[C@@H](C6=CC(=O)OC6)CC[C@]5(O)[C@@H]4CC[C@]3(O)C2)[C@H](O)[C@H](O)[C@H]1O [ouabain]
decrease in viral titers compared to untreated control [2]: 99.1% | effect on viral replication [5]: significantly inhibit | effect on viral replication [6]: significantly inhibit

CC(=O)c1c(O)c(C)c(O)c(Cc2c(O)c3c(c(C(=O)/C=C/c4ccccc4)c2O)OC(C)(C)C=C3)c1O [rottlerin]
concentrations found to be non-toxic / not decreasing cell viability [3]: up to 1.28 μM | reduction in viral titers compared to untreated control [4]: 80% | selectivity ratio [8]: 39 | reduction in viral titers compared to untreated control [2]: 93% | CC50 [9]: 18200 nM | IC50 [10, 11]: 460 nM | IC50 ([10]; read-out: IC50 (half maximal inhibitory concentration)): 465 nM
